Experiments:
[1] = biological target: Ephrin type-B receptor 1 (Homo sapiens) (UniProt P54762); assay: Inhibition of EPHB1 assessed as residual activity at 10 uM using [33P-ATP] by radiometric filter binding assay
[2] = biological target: Ribosomal protein S6 kinase alpha-5 (Homo sapiens) (UniProt O75582); assay: Inhibition of MSK1 assessed as residual activity at 10 uM using [33P-ATP] by radiometric filter binding assay
[3] = biological target: Serine/threonine-protein kinase OSR1 (Homo sapiens) (UniProt O95747); assay: Inhibition of OSR1 assessed as residual activity at 10 uM using [33P-ATP] by radiometric filter binding assay
[4] = biological target: Ephrin type-B receptor 3 (Homo sapiens) (UniProt P54753); assay: Inhibition of EPHB3 assessed as residual activity at 10 uM using [33P-ATP] by radiometric filter binding assay
[5] = biological target: MAP kinase-activated protein kinase 5 (Homo sapiens) (UniProt Q8IW41); assay: Inhibition of PRAK assessed as residual activity at 10 uM using [33P-ATP] by radiometric filter binding assay
[6] = biological target: High affinity nerve growth factor receptor (Homo sapiens) (UniProt P04629); assay: Inhibition of TrkA assessed as residual activity at 10 uM using [33P-ATP] by radiometric filter binding assay
[7] = biological target: Protein kinase C gamma type (Homo sapiens) (UniProt P05129); assay: Inhibition of PKCgamma assessed as residual activity at 10 uM using [33P-ATP] by radiometric filter binding assay
[8] = biological target: Protein kinase C zeta type (Homo sapiens) (UniProt Q05513); assay: Inhibition of PKCzeta assessed as residual activity at 10 uM using [33P-ATP] by radiometric filter binding assay
[9] = biological target: Maternal embryonic leucine zipper kinase (Homo sapiens) (UniProt Q14680); assay: Inhibition of MELK assessed as residual activity at 10 uM using [33P-ATP] by radiometric filter binding assay
[10] = biological target: Mitogen-activated protein kinase kinase kinase 1 (Homo sapiens) (UniProt Q13233); assay: Inhibition of MEKK1 assessed as residual activity at 10 uM using [33P-ATP] by radiometric filter binding assay
[11] = biological target: Tyrosine-protein kinase ABL1 (Homo sapiens) (UniProt P00519); assay: Inhibition of ABL assessed as residual activity at 10 uM using [33P-ATP] by radiometric filter binding assay
[12] = biological target: Receptor-interacting serine/threonine-protein kinase 2 (Homo sapiens) (UniProt O43353); assay: Inhibition of RIPK2 assessed as residual activity at 10 uM using [33P-ATP] by radiometric filter binding assay
[13] = biological target: Serine/threonine-protein kinase Nek2 (Homo sapiens) (UniProt P51955); assay: Inhibition of NEK2alpha assessed as residual activity at 10 uM using [33P-ATP] by radiometric filter binding assay
[14] = biological target: Tyrosine-protein kinase CSK (Homo sapiens) (UniProt P41240); assay: Inhibition of CSK assessed as residual activity at 10 uM using [33P-ATP] by radiometric filter binding assay
[15] = biological target: SRSF protein kinase 1 (Homo sapiens) (UniProt Q96SB4); assay: Inhibition of SRPK1 assessed as residual activity at 10 uM using [33P-ATP] by radiometric filter binding assay
[16] = biological target: Mitogen-activated protein kinase kinase kinase 11 (Homo sapiens) (UniProt Q16584); assay: Inhibition of MLK3 assessed as residual activity at 10 uM using [33P-ATP] by radiometric filter binding assay
[17] = biological target: Mitogen-activated protein kinase kinase kinase 5 (Homo sapiens) (UniProt Q99683); assay: Inhibition of ASK1 assessed as residual activity at 10 uM using [33P-ATP] by radiometric filter binding assay
[18] = biological target: Homeodomain-interacting protein kinase 1 (Homo sapiens) (UniProt Q86Z02); assay: Inhibition of HIPK1 assessed as residual activity at 10 uM using [33P-ATP] by radiometric filter binding assay
[19] = biological target: MAP/microtubule affinity-regulating kinase 4 (Homo sapiens) (UniProt Q96L34); assay: Inhibition of MARK4 assessed as residual activity at 10 uM using [33P-ATP] by radiometric filter binding assay
[20] = biological target: Ribosomal protein S6 kinase alpha-3 (Homo sapiens) (UniProt P51812); assay: Inhibition of RSK2 assessed as residual activity at 10 uM using [33P-ATP] by radiometric filter binding assay
[21] = biological target: Serine/threonine-protein kinase tousled-like 1 (Homo sapiens) (UniProt Q9UKI8); assay: Inhibition of TLK1 assessed as residual activity at 10 uM using [33P-ATP] by radiometric filter binding assay
[22] = biological target: Mitogen-activated protein kinase kinase kinase 7 (Homo sapiens) (UniProt O43318); assay: Inhibition of TAK1 assessed as residual activity at 10 uM using [33P-ATP] by radiometric filter binding assay
[23] = biological target: Rho-associated protein kinase 2 (Homo sapiens) (UniProt O75116); assay: Inhibition of ROCK2 assessed as residual activity at 10 uM using [33P-ATP] by radiometric filter binding assay
[24] = biological target: Receptor tyrosine-protein kinase erbB-4 (Homo sapiens) (UniProt Q15303); assay: Inhibition of HER4 assessed as residual activity at 10 uM using [33P-ATP] by radiometric filter binding assay
[25] = biological target: Dual specificity mitogen-activated protein kinase kinase 6 (Homo sapiens) (UniProt P52564); assay: Inhibition of MKK6 assessed as residual activity at 10 uM using [33P-ATP] by radiometric filter binding assay
[26] = biological target: Dual specificity protein kinase CLK2 (Homo sapiens) (UniProt P49760); assay: Inhibition of CLK2 assessed as residual activity at 10 uM using [33P-ATP] by radiometric filter binding assay
[27] = biological target: Dual specificity mitogen-activated protein kinase kinase 2 (Homo sapiens) (UniProt P36507); assay: Inhibition of MKK2 assessed as residual activity at 10 uM using [33P-ATP] by radiometric filter binding assay
[28] = biological target: Mitogen-activated protein kinase 15 (Homo sapiens) (UniProt Q8TD08); assay: Inhibition of ERK8 assessed as residual activity at 10 uM using [33P-ATP] by radiometric filter binding assay
[29] = biological target: Mitogen-activated protein kinase 13 (Homo sapiens) (UniProt O15264); assay: Inhibition of p38delta MAPK assessed as residual activity at 10 uM using [33P-ATP] by radiometric filter binding assay
[30] = biological target: Insulin receptor-related protein (Homo sapiens) (UniProt P14616); assay: Inhibition of IRR assessed as residual activity at 10 uM using [33P-ATP] by radiometric filter binding assay
[31] = biological target: Serine/threonine-protein kinase 26 (Homo sapiens) (UniProt Q9P289); assay: Inhibition of MST4 assessed as residual activity at 10 uM using [33P-ATP] by radiometric filter binding assay
[32] = biological target: Insulin-like growth factor 1 receptor (Homo sapiens) (UniProt P08069); assay: Inhibition of IGF-1R assessed as residual activity at 10 uM using [33P-ATP] by radiometric filter binding assay

Ribosomal protein S6 kinase alpha-3 (Homo sapiens), sequence (P51812 whole entry): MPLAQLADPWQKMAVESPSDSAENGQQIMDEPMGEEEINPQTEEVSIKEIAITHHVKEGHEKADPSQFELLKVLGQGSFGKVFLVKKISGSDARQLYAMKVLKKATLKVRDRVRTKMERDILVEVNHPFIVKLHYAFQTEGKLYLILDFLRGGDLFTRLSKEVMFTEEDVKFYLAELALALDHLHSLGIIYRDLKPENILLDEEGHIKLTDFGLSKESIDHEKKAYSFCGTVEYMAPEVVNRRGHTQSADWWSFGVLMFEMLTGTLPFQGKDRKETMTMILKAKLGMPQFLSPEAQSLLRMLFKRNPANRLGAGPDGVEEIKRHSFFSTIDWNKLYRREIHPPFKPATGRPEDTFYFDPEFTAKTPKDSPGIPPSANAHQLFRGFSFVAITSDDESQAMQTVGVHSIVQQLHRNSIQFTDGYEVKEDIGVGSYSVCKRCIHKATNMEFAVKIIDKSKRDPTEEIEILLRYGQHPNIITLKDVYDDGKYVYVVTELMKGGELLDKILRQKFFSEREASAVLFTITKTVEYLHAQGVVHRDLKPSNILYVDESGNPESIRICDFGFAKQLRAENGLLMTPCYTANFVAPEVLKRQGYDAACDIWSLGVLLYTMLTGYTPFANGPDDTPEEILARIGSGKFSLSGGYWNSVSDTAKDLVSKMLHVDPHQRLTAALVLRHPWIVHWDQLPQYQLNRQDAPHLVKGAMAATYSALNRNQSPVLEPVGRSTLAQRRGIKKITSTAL
Maternal embryonic leucine zipper kinase (Homo sapiens), sequence (Q14680 whole entry, looked up): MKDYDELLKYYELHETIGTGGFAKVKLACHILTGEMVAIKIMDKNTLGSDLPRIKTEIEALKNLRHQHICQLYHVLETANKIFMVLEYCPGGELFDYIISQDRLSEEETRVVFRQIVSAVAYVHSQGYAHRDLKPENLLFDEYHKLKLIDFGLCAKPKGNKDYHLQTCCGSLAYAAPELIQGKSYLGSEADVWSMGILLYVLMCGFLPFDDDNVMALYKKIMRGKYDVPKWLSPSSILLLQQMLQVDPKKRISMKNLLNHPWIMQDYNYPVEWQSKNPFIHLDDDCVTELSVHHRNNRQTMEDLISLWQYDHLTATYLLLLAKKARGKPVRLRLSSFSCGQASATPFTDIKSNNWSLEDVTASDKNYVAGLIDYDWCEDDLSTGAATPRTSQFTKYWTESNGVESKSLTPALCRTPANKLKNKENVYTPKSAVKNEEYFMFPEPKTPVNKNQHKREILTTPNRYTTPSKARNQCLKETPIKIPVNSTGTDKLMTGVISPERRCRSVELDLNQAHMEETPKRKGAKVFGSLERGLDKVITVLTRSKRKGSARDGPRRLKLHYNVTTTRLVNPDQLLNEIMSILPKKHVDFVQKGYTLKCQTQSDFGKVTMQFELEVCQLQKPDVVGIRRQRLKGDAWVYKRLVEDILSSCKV
Tyrosine-protein kinase CSK (Homo sapiens), sequence (P41240 2-450 limits assumed): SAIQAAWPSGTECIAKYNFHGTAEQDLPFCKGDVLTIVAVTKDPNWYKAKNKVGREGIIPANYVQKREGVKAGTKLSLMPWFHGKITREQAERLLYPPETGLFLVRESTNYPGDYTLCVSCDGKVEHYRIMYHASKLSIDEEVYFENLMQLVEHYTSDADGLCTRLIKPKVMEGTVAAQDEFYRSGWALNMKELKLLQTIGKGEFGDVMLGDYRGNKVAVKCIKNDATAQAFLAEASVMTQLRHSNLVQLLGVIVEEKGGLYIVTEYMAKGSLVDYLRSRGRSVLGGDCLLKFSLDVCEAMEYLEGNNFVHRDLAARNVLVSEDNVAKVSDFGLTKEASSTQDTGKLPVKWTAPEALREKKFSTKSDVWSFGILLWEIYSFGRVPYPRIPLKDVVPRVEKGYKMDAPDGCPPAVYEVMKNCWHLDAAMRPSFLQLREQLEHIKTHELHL
Ribosomal protein S6 kinase alpha-5 (Homo sapiens), sequence (O75582 whole entry, looked up): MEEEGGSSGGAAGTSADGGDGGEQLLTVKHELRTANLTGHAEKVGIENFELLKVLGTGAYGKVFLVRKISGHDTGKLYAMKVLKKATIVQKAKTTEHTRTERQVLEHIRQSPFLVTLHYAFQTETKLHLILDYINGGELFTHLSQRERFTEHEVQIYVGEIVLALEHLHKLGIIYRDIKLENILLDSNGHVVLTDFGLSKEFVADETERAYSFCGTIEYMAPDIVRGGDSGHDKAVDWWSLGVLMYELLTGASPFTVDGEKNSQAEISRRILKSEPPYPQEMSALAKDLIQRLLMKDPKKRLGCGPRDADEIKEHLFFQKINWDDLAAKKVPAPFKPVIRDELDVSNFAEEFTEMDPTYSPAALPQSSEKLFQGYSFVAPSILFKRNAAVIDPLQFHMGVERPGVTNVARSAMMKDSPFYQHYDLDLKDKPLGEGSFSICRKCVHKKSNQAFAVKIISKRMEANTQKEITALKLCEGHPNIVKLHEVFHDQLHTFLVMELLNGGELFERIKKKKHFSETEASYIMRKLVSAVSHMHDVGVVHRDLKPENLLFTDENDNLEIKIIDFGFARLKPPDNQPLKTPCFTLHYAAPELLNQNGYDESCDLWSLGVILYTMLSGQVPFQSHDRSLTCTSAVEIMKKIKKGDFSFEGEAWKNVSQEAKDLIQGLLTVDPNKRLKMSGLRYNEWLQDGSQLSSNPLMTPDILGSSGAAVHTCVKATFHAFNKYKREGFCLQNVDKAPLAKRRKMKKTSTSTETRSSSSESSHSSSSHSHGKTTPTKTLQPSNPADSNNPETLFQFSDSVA
SRSF protein kinase 1 (Homo sapiens), sequence (Q96SB4 whole entry): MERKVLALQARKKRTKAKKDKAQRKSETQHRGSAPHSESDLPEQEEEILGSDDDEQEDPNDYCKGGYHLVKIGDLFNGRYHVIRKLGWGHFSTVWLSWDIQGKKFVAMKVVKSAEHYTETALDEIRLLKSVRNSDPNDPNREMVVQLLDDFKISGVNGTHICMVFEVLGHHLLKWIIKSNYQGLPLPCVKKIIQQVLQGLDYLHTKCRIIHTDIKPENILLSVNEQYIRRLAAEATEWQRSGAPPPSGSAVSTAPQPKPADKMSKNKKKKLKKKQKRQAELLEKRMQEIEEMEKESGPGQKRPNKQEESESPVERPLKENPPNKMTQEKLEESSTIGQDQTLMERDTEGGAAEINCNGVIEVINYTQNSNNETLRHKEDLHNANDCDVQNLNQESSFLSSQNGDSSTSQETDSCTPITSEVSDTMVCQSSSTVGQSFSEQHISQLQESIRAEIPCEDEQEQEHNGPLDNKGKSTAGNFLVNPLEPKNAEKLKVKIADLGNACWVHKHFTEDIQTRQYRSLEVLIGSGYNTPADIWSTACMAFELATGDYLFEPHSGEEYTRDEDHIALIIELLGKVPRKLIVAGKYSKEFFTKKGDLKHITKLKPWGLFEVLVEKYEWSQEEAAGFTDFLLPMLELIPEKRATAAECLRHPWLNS
Serine/threonine-protein kinase OSR1 (Homo sapiens), sequence (O95747 2-527 limits assumed): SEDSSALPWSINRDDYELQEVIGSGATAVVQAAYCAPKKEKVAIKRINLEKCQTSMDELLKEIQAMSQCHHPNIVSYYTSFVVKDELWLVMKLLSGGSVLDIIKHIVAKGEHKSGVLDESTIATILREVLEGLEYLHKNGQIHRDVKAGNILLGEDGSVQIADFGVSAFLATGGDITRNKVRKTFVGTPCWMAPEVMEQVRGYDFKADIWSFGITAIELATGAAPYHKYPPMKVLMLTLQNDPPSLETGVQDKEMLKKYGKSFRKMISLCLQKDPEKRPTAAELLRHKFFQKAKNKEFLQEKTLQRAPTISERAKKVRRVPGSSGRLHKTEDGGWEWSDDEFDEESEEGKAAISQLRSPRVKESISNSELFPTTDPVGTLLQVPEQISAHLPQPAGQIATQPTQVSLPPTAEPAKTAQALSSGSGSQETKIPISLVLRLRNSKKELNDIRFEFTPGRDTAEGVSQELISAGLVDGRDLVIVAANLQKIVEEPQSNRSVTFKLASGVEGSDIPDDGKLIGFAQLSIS
MAP kinase-activated protein kinase 5 (Homo sapiens), sequence (Q8IW41 whole entry): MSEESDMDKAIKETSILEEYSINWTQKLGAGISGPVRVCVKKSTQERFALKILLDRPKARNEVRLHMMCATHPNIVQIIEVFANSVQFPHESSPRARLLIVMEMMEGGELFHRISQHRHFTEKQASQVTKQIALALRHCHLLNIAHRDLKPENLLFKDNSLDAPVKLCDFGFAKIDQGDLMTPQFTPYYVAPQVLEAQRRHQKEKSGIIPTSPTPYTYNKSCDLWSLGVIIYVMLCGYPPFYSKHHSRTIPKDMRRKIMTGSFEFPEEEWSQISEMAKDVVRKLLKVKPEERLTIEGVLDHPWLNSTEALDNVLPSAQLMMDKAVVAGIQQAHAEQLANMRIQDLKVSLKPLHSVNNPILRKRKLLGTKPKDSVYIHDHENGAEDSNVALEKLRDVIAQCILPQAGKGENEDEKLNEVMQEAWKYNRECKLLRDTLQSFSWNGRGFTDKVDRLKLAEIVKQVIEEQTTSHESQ

- Activity [1]: 4%
- Activity [2]: 75%
- Activity [3]: 81%
- Activity [4]: 7%
- Activity [5]: 97%
- Activity [6]: 45%
- Activity [7]: 108%
- Activity [8]: 106%
- Activity [9]: 64%
- Activity [10]: 115%
- Activity [11]: 45%
- Activity [12]: 17%
- Activity [13]: 91%
- Activity [14]: 35%
- Activity [15]: 89%
- Activity [16]: 60%
- Activity [17]: 99%
- Activity [18]: 124%
- Activity [19]: 74%
- Activity [20]: 82%
- Activity [21]: 99%
- Activity [22]: 96%
- Activity [23]: 90%
- Activity [24]: 56%
- Activity [25]: 86%
- Activity [26]: 45%
- Activity [27]: 31%
- Activity [29]: 100%
- Activity [30]: 77%
- Activity [31]: 52%
- Activity [32]: 71%
SMILES: Cc1ccc(F)cc1-c1nc2[nH]nc(N)c2c2c1CCCC2
- Activity [28]: 46%

Source: ChEMBL document CHEMBL1926576, “Fragment based lead discovery of small molecule inhibitors for the EPHA4 receptor tyrosine kinase” (Eur J Med Chem, 2012)
